Here are results for one compound from patent publication US20150352209A1, “NANOFIBER HAVING SELF-HEATING […] BIOLOGICALLY ACTIVE SUBSTANCE RELEASE PROPERTIES, PRODUCTION METHOD FOR SAME, AND NONWOVEN FABRIC HAVING SELF-HEATING […] BIOLOGICALLY ACTIVE SUBSTANCE RELEASE CAPABILITIES” (NATIONAL INSTITUTE FOR MATERIALS SCIENCE, priority 2013, published 2015).

The test system of the test is COLO679 cell, which is a human melanoma cell line. Briefly: Cancer cell killing test (cell proliferation index). Format: cell-based. Conditions: COLO679 cells; anticancer drug added instead of application of alternating magnetic field.

Structures are written as SMILES.

Turning to `COc1cccc2c1C(=O)c1c(O)c3c(c(O)c1C2=O)C[C@@](O)(C(=O)CO)C[C@@H]3O[C@H]1C[C@H](N)[C@H](O)[C@H](C)O1` [free anticancer drug, doxorubicin], the “change of cell proliferation index (CPI)” value was “the decrease amount of the CPI was smaller than in the case in which the sample in Example 1 was used”.
